Laboratory results taken from ChEMBL document CHEMBL1144057, “Guiaflavine, a new bisindole quaternary alkaloid from the stem bark of Strychnos guianensis” (J Nat Prod, 1999).

Tested on: Mus musculus
Test: Toxicity in ip dosed NMRI mouse
Format: organism-based
Settings: in vivo

CCc1c[n+]2c(cc1C1=CN3c4ccccc4[C@@]45CC[N+]6(C)CC7=CCO[C@@H]1[C@@H]([C@H]34)[C@H]7C[C@@H]56)-c1[nH]c3cccc(OC)c3c1CC2.[Cl-].[Cl-] (stereo partly specified) [GUIAFLAVINE] was tested, and the LD100 was 100 mg/kg.
